Data: ChEMBL document CHEMBL1201862, “PubChem BioAssay data set” (2004)
Activity calls are given as the source filed them.

Tested on: not listed separately
Experiment: HEp-2 cell cytotoxicity, dose response, cytotoxicity control for RSV inhibitor project, HTS (AID 2410)
Format: functional
Conditions: human respiratory syncytial virus
For `COc1cc(N2CCCC2)c(OC)cc1/C=C(/C#N)c1cccc(Br)c1`, the CC50 was > 50 µM (active). In the case of `Cc1ccc(Nc2nnc(SCC(=O)c3ccc(Br)s3)s2)c(C)c1`, the CC50 is reported as 24.4 µM (active). With `O=C(O)c1ccc(NC(=O)c2cn(-c3ccccc3)nc2-c2cccc(Cl)c2)cc1` the CC50 was 33.6 µM (active). For `CC1CCCCN1S(=O)(=O)c1ccc(NC(=O)c2cccs2)cc1` (centres undefined), the CC50 was 25.1 µM (active). In the case of `O=C(NN=C(S)Nc1ccc(Cl)c(Cl)c1)c1cccc([N+](=O)[O-])c1`, the CC50 is reported as 7.46 µM (active). In the case of `CN1CCN(C(=S)c2ccc(-c3cccc(Cl)c3Cl)o2)CC1`, the CC50 is reported as 20.7 µM (active). In the case of `O=C(Nc1ccc2nn(-c3ccc(F)cc3)nc2c1)c1cccnc1`, the CC50 is reported as > 50 µM (active). With `Cc1ccc(-c2csc(NCCc3nc4cc(Cl)c(Cl)cc4n3CCOCCO)n2)cc1` the CC50 was 9.53 µM (active).

Tested on: not listed separately
Experiment: inhibitors of firefly luciferase expression or activity, dose response, H4 neuroglioma cells, luminescence (AID 1990)
Format: functional, cell-based
Conditions: not given
With `COc1cccc(C(=O)Nc2ccc3[nH]c(O)nc3c2)c1OC` the EC50 was < 0.1 µM (active). For `O=C(O)CSc1nnc(NC(=O)c2ccc3c(c2)OCO3)s1`, the EC50 was 13 µM (active). With `COc1cccc(C2Nc3ccc4ccccc4c3C3=C2C(=O)CCC3)c1O` (centres undefined) the EC50 was 10 µM (active). In the case of `CNC(=O)c1cccn(Cc2cccc(C(F)(F)F)c2)c1=O`, the EC50 is reported as > 120 µM (not active). For `Fc1ccc(-c2ccnc3nc(-n4cccc4)nn23)cc1`, the EC50 was 39.7 µM (active). For `CCc1ccc(NC(=O)C2CCN(S(=O)(=O)c3ccc4c(c3)NC(=O)CO4)CC2)cc1`, the EC50 was > 120 µM (not active). In the case of `COc1ccc(CCN2CC3=C(C2=O)C(c2ccccc2)NC(=O)N3C)cc1OC` (centres undefined), the EC50 is reported as 24.4 µM (active). For `CC(C)(C)CC(C)(C)Nc1c(-c2ccc(O)cc2)nc2cnccn12`, the EC50 was 13.9 µM (active). In the case of `Cc1cc(C(=O)CC#N)c(C)n1-c1c(C)n(C)n(-c2ccccc2)c1=O`, the EC50 is reported as > 120 µM (not active).

Tested on: not listed separately
Experiment: Luminescence Cell-Based Dose Confirmation HTS to Identify Activators of 5'UTR Stem-Loop Driven Alpha-Synuclein mRNA Translation in H4 Neuroglioblastoma Cells. [Related pubchem assays: 1829 (Project Summary), 1814 (Primary HTS)]
Format: functional
Conditions: not given
With `COc1ccc(/C=N/Nc2nc(Nc3ccccc3)nc(N3CCCCC3)n2)cc1OC` the EC50 was 9.49 µM (active). In the case of `CCOc1ccc(N/C(S)=N/CCCn2ccnc2)cc1`, the EC50 is reported as > 120 µM (not active). In the case of `CSc1ccc(CC(=O)N2CCC(n3nccc3NC(=O)C3CC3)CC2)cc1`, the EC50 is reported as 15.2 µM (active). With `C(/C=C/c1ccco1)=N/N1CCN(c2ccccc2)CC1` the EC50 was 2.21 µM (active). With `CN(C(=O)CSc1nncc2ccccc12)C1CCCCC1` the EC50 was 10.5 µM (active). With `COc1cccc(C2C(C#N)=C(N)OC(C(C)(C)C)=C2C#N)c1` (centres undefined) the EC50 was > 120 µM (not active). In the case of `O=C1c2ccccc2NC(c2ccccc2O)N1NS(=O)(=O)c1ccccc1` (centres undefined), the EC50 is reported as > 120 µM (not active).

Tested on: not listed separately
Experiment: Luminescence Cell-Based Dose Response HTS to Identify Activators of Luciferase Translation or Activity in H4 […] Cells. [Related pubchem assays: 1829 (Project Summary), 1814 (Primary HTS)]
Format: functional
Conditions: not given
For `COc1ccc(/C=N/Nc2nc(Nc3ccccc3)nc(N3CCCCC3)n2)cc1OC`, the EC50 was 8.28 µM (active). In the case of `CCOc1ccc(N/C(S)=N/CCCn2ccnc2)cc1`, the EC50 is reported as > 120 µM (not active). In the case of `CSc1ccc(CC(=O)N2CCC(n3nccc3NC(=O)C3CC3)CC2)cc1`, the EC50 is reported as 4.85 µM (active). For `C(/C=C/c1ccco1)=N/N1CCN(c2ccccc2)CC1`, the EC50 was 17.5 µM (active). With `CN(C(=O)CSc1nncc2ccccc12)C1CCCCC1` the EC50 was 14.1 µM (active). For `COc1cccc(C2C(C#N)=C(N)OC(C(C)(C)C)=C2C#N)c1` (centres undefined), the EC50 was > 120 µM (not active). In the case of `O=C1c2ccccc2NC(c2ccccc2O)N1NS(=O)(=O)c1ccccc1` (centres undefined), the EC50 is reported as > 60 µM (not active).

Tested on: Streptococcus sp. 'group A'
Experiment: growth inhibition of control SK(-) GAS strain, dose response, counter-screen for streptokinase expression inhibitor project, luminescence, kanamycin, BacTiterGlo, confirmation (AID 1900)
Format: functional, organism-based
Conditions: not given
For `COc1ccc(/C=N/Nc2nc(Nc3ccccc3)nc(N3CCCCC3)n2)cc1OC`, the EC50 was 16.1 µM (active).

Tested on: not listed separately
Experiment: Luminescence Cell-Based Dose Response HTS to Identify Inhibitors of 5'UTR Stem-Loop Driven Prion Protein mRNA Translation in H4 Neuroglioblastoma Cells. [Related pubchem assays: 1827 (Project Summary), 1813 (Primary HTS)]
Format: functional
Conditions: not given
In the case of `COc1cccc(C(=O)Nc2ccc3[nH]c(O)nc3c2)c1OC`, the EC50 is reported as > 120 µM (not active). In the case of `O=C(O)CSc1nnc(NC(=O)c2ccc3c(c2)OCO3)s1`, the EC50 is reported as 16.2 µM (active). In the case of `COc1cccc(C2Nc3ccc4ccccc4c3C3=C2C(=O)CCC3)c1O` (centres undefined), the EC50 is reported as 32.1 µM (active). With `CNC(=O)c1cccn(Cc2cccc(C(F)(F)F)c2)c1=O` the EC50 was 42.8 µM (active). With `Fc1ccc(-c2ccnc3nc(-n4cccc4)nn23)cc1` the EC50 was > 120 µM (not active). With `CCc1ccc(NC(=O)C2CCN(S(=O)(=O)c3ccc4c(c3)NC(=O)CO4)CC2)cc1` the EC50 was > 120 µM (not active). With `COc1ccc(CCN2CC3=C(C2=O)C(c2ccccc2)NC(=O)N3C)cc1OC` (centres undefined) the EC50 was > 120 µM (not active). In the case of `CC(C)(C)CC(C)(C)Nc1c(-c2ccc(O)cc2)nc2cnccn12`, the EC50 is reported as 14.9 µM (active). With `Cc1cc(C(=O)CC#N)c(C)n1-c1c(C)n(C)n(-c2ccccc2)c1=O` the EC50 was > 120 µM (not active).

Tested on: H4
Experiment: Luminescence Cell-Based Dose Response HTS to Identify Activators of 5'UTR Stem-Loop Driven Prion Protein mRNA Translation in H4 Neuroglioblastoma Cells. [Related pubchem assays: 1829 (Project Summary), 1814 (Primary HTS)]
Format: functional
Conditions: Homo sapiens
For `COc1ccc(/C=N/Nc2nc(Nc3ccccc3)nc(N3CCCCC3)n2)cc1OC`, the EC50 was 23.1 µM (active). With `CCOc1ccc(N/C(S)=N/CCCn2ccnc2)cc1` the EC50 was > 120 µM (not active). In the case of `CSc1ccc(CC(=O)N2CCC(n3nccc3NC(=O)C3CC3)CC2)cc1`, the EC50 is reported as > 120 µM (not active). For `CN(C(=O)CSc1nncc2ccccc12)C1CCCCC1`, the EC50 was 13.1 µM (active). In the case of `COc1cccc(C2C(C#N)=C(N)OC(C(C)(C)C)=C2C#N)c1` (centres undefined), the EC50 is reported as > 120 µM (not active). With `O=C1c2ccccc2NC(c2ccccc2O)N1NS(=O)(=O)c1ccccc1` (centres undefined) the EC50 was > 120 µM (not active).

Tested on: not listed separately
Experiment: inhibitors of SNCA 5'UTR-driven reporter translation, confirmation, H4 neuroglioma cells, luminescence (AID 1988)
Format: functional, cell-based
Conditions: not given
With `O=C(O)CSc1nnc(NC(=O)c2ccc3c(c2)OCO3)s1` the EC50 was 62.2 µM (active). For `COc1cccc(C2Nc3ccc4ccccc4c3C3=C2C(=O)CCC3)c1O` (centres undefined), the EC50 was 11.7 µM (active). For `CNC(=O)c1cccn(Cc2cccc(C(F)(F)F)c2)c1=O`, the EC50 was 14.6 µM (active). In the case of `Fc1ccc(-c2ccnc3nc(-n4cccc4)nn23)cc1`, the EC50 is reported as > 120 µM (not active). For `CCc1ccc(NC(=O)C2CCN(S(=O)(=O)c3ccc4c(c3)NC(=O)CO4)CC2)cc1`, the EC50 was > 120 µM (not active). In the case of `COc1ccc(CCN2CC3=C(C2=O)C(c2ccccc2)NC(=O)N3C)cc1OC` (centres undefined), the EC50 is reported as > 120 µM (not active). For `CC(C)(C)CC(C)(C)Nc1c(-c2ccc(O)cc2)nc2cnccn12`, the EC50 was 107 µM (active). With `Cc1cc(C(=O)CC#N)c(C)n1-c1c(C)n(C)n(-c2ccccc2)c1=O` the EC50 was > 120 µM (not active).

Biological target: T1, Streptokinase A (Streptococcus pyogenes serotype M1, UniProt P10520)
T1 sequence (P10520 whole entry): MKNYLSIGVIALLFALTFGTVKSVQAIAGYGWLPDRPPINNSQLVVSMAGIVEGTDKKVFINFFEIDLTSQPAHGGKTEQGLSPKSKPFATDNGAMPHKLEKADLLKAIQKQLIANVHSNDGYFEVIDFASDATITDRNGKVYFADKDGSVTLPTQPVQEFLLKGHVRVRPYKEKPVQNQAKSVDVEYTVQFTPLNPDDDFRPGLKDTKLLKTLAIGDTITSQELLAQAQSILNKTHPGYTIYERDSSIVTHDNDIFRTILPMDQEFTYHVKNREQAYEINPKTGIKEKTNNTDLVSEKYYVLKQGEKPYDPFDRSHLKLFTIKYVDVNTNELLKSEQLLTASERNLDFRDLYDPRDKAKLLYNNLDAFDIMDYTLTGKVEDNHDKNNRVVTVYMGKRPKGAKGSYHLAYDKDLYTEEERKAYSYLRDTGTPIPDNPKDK
Experiment: S. pyogenes streptokinase expression inhibitors, potency, dose response, plasminogen activation absorbance, OD405 (AID 1914);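 further: secreted streptokinase activity via plasminogen activation per viability signal from cell pellet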
Format: functional, Streptococcus pyogenes M1 GAS
Conditions: not given
For `COc1ccc(/C=N/Nc2nc(Nc3ccccc3)nc(N3CCCCC3)n2)cc1OC`, the EC50 was > 150 µM (not active).

Tested on: Streptococcus
Experiment: Group A Streptococcus viability loss, dose response, counter-screen for streptokinase expression inhibitor project, luminescence, BacTiterGlo (AID 1915);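 further: potency for reduction of bacterial viability or growth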
Format: functional, organism-based
Conditions: not given
For `COc1ccc(/C=N/Nc2nc(Nc3ccccc3)nc(N3CCCCC3)n2)cc1OC`, the EC50 was 46.3 µM (active).

Biological target: Cytochrome P450 2C19 (Homo sapiens, UniProt P33261)
Sequence (P33261 whole entry): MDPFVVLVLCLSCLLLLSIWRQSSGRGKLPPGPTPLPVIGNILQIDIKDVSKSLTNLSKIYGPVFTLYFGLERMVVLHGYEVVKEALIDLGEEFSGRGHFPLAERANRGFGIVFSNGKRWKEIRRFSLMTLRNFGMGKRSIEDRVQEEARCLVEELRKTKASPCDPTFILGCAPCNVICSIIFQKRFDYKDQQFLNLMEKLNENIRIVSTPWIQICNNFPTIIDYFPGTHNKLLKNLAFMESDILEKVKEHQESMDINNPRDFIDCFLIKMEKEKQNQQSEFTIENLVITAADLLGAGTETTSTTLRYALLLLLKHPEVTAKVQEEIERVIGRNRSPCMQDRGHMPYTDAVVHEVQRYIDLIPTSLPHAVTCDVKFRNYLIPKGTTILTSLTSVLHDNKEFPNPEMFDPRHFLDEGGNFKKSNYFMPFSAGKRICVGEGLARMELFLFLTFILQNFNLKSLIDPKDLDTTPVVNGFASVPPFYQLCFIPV
Experiment: Cytochrome panel assay with activity outcomes. Panel member name: p450-cyp2c19 Compounds with AC50 equal or less than 10 uM are considered active
Format: functional
Conditions: read-out: AC50
In the case of `C(/C=C/c1ccco1)=N/N1CCN(c2ccccc2)CC1`, the AC50 is reported as 2 µM (inconclusive).

Biological target: T2, Cytochrome P450 1A2 (Homo sapiens, UniProt P05177);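 further: PubChem cytochrome P450 panel assay, CYP1A2 panel member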
T2 sequence (P05177 whole entry): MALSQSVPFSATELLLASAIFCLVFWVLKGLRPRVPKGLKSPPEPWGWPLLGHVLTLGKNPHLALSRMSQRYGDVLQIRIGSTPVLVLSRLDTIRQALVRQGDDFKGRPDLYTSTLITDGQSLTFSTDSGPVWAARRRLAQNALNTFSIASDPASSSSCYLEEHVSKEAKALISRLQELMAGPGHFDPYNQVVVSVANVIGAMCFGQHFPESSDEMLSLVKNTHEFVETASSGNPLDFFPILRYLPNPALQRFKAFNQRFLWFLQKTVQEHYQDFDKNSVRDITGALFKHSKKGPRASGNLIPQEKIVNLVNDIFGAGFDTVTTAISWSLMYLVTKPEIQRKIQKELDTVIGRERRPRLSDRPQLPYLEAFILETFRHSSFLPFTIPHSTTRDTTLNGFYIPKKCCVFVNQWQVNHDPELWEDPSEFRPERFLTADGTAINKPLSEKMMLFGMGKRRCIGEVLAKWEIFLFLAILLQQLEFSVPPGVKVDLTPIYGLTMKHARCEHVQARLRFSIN
Conditions: not given
For `C(/C=C/c1ccco1)=N/N1CCN(c2ccccc2)CC1`, the AC50 was 8.91 µM (inconclusive).
